Experimental data reported in patent US20180117013A1, “METHODS OF TREATING LIVER DISEASE USING INDANE ACETIC ACID DERIVATIVES” (T3D THERAPEUTICS, INC., priority 2015, published 2018).

System: high fat diet ZDF rats
Assay: NAFLD/NASH animal model, high fat diet ZDF rats
Format: in vivo, rat
Settings: high fat diet ZDF male rats; all three doses (0.3, 1.0, 3 mg/kg) PO q.d. for 5 weeks
Experimental: Twelve week old ZDF male rats (n=6 per group) were acclimated for 3 weeks prior to study initiation then fed with either a high fat (D12492+0.5% added cholesterol with 55% wt/vol fructose in drinking water) or low fat (DL12405J) diets. The compound of Example 10 above, vehicle, or pioglitizone were administered by oral gavage q.d. for 5 weeks as described in Table 1.
Body weights were recorded weekly, and blood samples were collected from all animals at the end of weeks 4, 5, 6 and 7 following an overnight fast, and triglycerides, cholesterol, AST, ALT, insulin, and BG were measured in singlet. After week 8, the livers were harvested from all animals and weighed. The left lobe was placed in 10% NBF for NASH scoring by PAI (H % E staining, Oil Red O staining and Sirius Red staining). One half of the right lobe was snap-frozen for qPCR (to quantify type 1 collagen, insulin receptor, IGF-1, ceramide synthase 2, sphingomyelin phosphodiesterase 3, MCP-1 and IL-6). The remaining right lobe was snap-frozen for estimation of liver triglycerides and cholesterol.

CCc1oc(-c2ccc(OC)cc2)nc1CCOc1ccc2c(c1)CC[C@H]2CC(=O)O [Example 10, (S)-2-(5-(2-(5-ethyl-2-(4-methoxyphenyl)oxazol-4-yl)ethoxy)-2,3-dihydro-1H-inden-1-yl)acetic acid]
protection from NASH like symptoms: protection from NASH like symptoms
